Test results taken from patent US8198456B2, “Dihydropyridine derivatives as useful as protein kinase inhibitors” (Bayer Intellectual Property GmbH, priority 2006, dated 2012).

Molecular target: T1, recombinant human c-MET kinase enzyme domain (Homo sapiens, UniProt P08581)
T1 construct: Recombinant c-Met kinase domain (amino acids 960-1390); His (N); made in house; host or cells: baculovirus expression system (insect cells; SF21 is named only for the alternative format)
Assay: c-MET receptor tyrosine kinase Homogeneous Time Resolved Fluorescence assay (HTRF)
Assay type: biochemical
Settings: Biological Example 1 and/or Biological Example 2
Text: Recombinant c-Met kinase domain (amino acids 960-1390) was produced in a baculovirus expression vector as an N-terminal His-tagged fusion protein and purified on a NiNTA column. The resulting purified enzyme was then used in the following c-Met Homogeneous Time Resolved Fluorescence assay (HTRF) to find compounds of the invention and to perform initial activity determinations. Specifically, this assay measures the ability of compounds of the invention to inhibit the phosphorylation of a randomly synthesized, biotinylated heterocopolymeric polypeptide composed of glutamic acid and tyrosine, with an average length of 100 aa. The assay analyzes the amount of phosphorylated polypeptide produced.
The enzymatic phosphorylation of the biotinylated heterocopolymeric polypeptide was performed in a black 384-well plate at ambient temperature in a reaction mixture containing 50 mM HEPES (pH 7.4), 5 mM MgCl2, 5 mM MnCl2, 0.01% Tween-20, and 2 mM DTT, […] recombinant human c-MET kinase enzyme domain, 37 nM biotinylated heterocopolymeric polypeptide composed of glutamic acid and tyrosine, 20 μM ATP, 1% DMSO in the absence or presence of a compound of the invention. The reaction was stopped after a 20-minute incubation by the addition of 80 mM EDTA.
The formation of phosphorylated heterocopolymeric, biotinylated polypeptide was quantified with the HTRF assay technology using an anti-phosphotyrosine antibody, PT66, conjugated to europium cryptate, mixed with a streptavidin-XL665 conjugate. Reduced or inhibited phosphorylation of the heterocopolymeric, biotinylated polypeptide prevents the anti-phosphotyrosine antibody from binding to the peptide, resulting in a loss of energy transfer to the streptavidin-XL665 conjugate.
Following the 384-well enzymatic phosphorylation reaction outlined above, the detection of phosphorylated heterocopolymeric, biotinylated polypeptide was performed by dilution of the stopped reaction mixture 2-fold with 50 mM HEPES (pH 7.0), 500 mM KF, 0.1% BSA, streptavidin-XL665 (20 nM), and anti-phosphotyrosine antibody PT66-crypate conjugate (6.4 ng/well) and incubation for four hours at ambient temperature. Plates were read in an Envision plate reader (PerkinElmer Life and Analytical Sciences, Inc., MA) simultaneously at 620 nm and 665 nm to obtain signal ratios of 665 nm/620 nm. Results of energy transfer were expressed as signal ratios of 665 nm/620 nm. Negative controls were samples without recombinant c-MET or c-MET treated with 100 mM EDTA.
For determination of IC50 values of particular compounds of the invention, eight serially diluted compound concentrations (at 1:3.16 dilution) were used in the assay. Controls without a compound of the invention or with a reference compound were run in parallel in the same assay plate.

T1 sequence (P08581 960-1390): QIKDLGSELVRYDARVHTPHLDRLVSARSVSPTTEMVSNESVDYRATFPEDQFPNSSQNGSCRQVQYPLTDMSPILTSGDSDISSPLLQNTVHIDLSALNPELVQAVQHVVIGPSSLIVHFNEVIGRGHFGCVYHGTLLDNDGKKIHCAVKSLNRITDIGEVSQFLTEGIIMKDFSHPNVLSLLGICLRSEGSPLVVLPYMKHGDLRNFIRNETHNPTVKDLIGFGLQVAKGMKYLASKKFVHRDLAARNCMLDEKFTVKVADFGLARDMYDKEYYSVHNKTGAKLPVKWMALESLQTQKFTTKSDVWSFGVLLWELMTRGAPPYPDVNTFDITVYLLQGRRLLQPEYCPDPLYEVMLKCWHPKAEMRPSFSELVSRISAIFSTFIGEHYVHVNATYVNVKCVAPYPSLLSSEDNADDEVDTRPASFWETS

**Q.** Which IC50 does the source give for `CC1=C(C#N)C(c2cccc(C(=O)Nc3ccc(CN(C)C)cn3)c2)C(C#N)=C(C)N1` [compound 76, 3-(3,5-dicyano-1,4-dihydro-2,6-dimethyl-4-pyridinyl)-N-[5-[(dimethylamino)methyl]-2-pyridinyl]-benzamide] here?
**A.** 100 to 500 nM

**Q.** Which IC50 does the source give for `CC1=C(C#N)C(c2ccc3[nH]ncc3c2)C(C#N)=C(C)N1` [compound 80, 1,4-dihydro-4-(1H-indazol-5-yl)-2,6-dimethyl-3,5-pyridinedicarbonitrile] here?
**A.** < 100 nM

**Q.** How did the IC50 turn out when `CC1=C(C#N)C(c2ccc3[nH]nc(C)c3c2)C(C#N)=C(C)N1` [compound 81, 1,4-dihydro-2,6-dimethyl-4-(3-methyl-1H-indazol-5-yl)-3,5-pyridinedicarbonitrile] was run?
**A.** < 100 nM

**Q.** With `CC1=C(C#N)C(c2ccc3[nH]nc(N)c3c2)C(C#N)=C(C)N1` [compound 82, 4-(3-amino-1H-indazol-5-yl)-1,4-dihydro-2,6-dimethyl-3,5-pyridinedicarbonitrile] as the compound, how does the IC50 read?
**A.** < 100 nM

**Q.** Which IC50 does the source give for `CC1=C(C#N)C(c2ccc3[nH]nc(CN4CCOCC4)c3c2)C(C#N)=C(C)N1` [compound 83, 1,4-dihydro-2,6-dimethyl-4-[3-(4-morpholinylmethyl)-1H-indazol-5-yl]-3,5-pyridinedicarbonitrile] here?
**A.** 500 to 2500 nM

**Q.** With `COc1cccc(-c2n[nH]c3ccc(C4C(C#N)=C(C)NC(C)=C4C#N)cc23)c1` [compound 84, 1,4-dihydro-4-[3-(3-methoxyphenyl)-1H-indazol-5-yl]-2,6-dimethyl-3,5-pyridinedicarbonitrile] as the compound, how does the IC50 read?
**A.** 100 to 500 nM

**Q.** How did the IC50 turn out when `COC(=O)c1n[nH]c2ccc(C3C(C#N)=C(C)NC(C)=C3C#N)cc12` [compound 85, 5-(3,5-dicyano-1,4-dihydro-2,6-dimethyl-4-pyridinyl)-1H-indazole-3-carboxylic acid methyl ester] was run?
**A.** 500 to 2500 nM

**Q.** How did the IC50 turn out when `CC1=C(C#N)C(c2ccc3[nH]nc(C(=O)O)c3c2)C(C#N)=C(C)N1` [compound 86, 5-(3,5-dicyano-1,4-dihydro-2,6-dimethyl-4-pyridinyl)-1H-indazole-3-carboxylic acid] was run?
**A.** < 100 nM

**Q.** How did the IC50 turn out when `CC1=C(C#N)C(c2ccc3[nH]nc(-c4cccnc4)c3c2)C(C#N)=C(C)N1` [compound 87, 1,4-dihydro-2,6-dimethyl-4-[3-(3-pyridinyl)-1H-indazol-5-yl]-3,5-pyridinedicarbonitrile] was run?
**A.** < 100 nM

**Q.** How did the IC50 turn out when `CC1=C(C#N)C(c2ccc3[nH]nc(-c4ccccn4)c3c2)C(C#N)=C(C)N1` [compound 88, 1,4-dihydro-2,6-dimethyl-4-[3-(2-pyridinyl)-1H-indazol-5-yl]-3,5-pyridinedicarbonitrile] was run?
**A.** < 100 nM

**Q.** `CC(=O)Nc1n[nH]c2ccc(C3C(C#N)=C(C)NC(C)=C3C#N)cc12` [compound 89, N-[5-(3,5-dicyano-1,4-dihydro-2,6-dimethyl-4-pyridinyl)-1H-indazol-3-yl]-acetamide] was tested. Which IC50 did it give?
**A.** < 100 nM

**Q.** Which IC50 does the source give for `CC1=C(C#N)C(c2ccc3[nH]nc(CNc4cccnc4)c3c2)C(C#N)=C(C)N1` [compound 91, 1,4-dihydro-2,6-dimethyl-4-[3-[(3-pyridinylamino)methyl]-1H-indazol-5-yl]-3,5-pyridinedicarbonitrile] here?
**A.** < 100 nM

**Q.** How did the IC50 turn out when `CC1=C(C#N)C(c2ccc3c(c2)c(N)nn3C(=O)OC(C)(C)C)C(C#N)=C(C)N1` [compound 92, 3-amino-5-(3,5-dicyano-1,4-dihydro-2,6-dimethyl-4-pyridinyl)-1H-indazole-1-carboxylic acid tert-butyl ester] was run?
**A.** 100 to 500 nM

**Q.** `CC1=C(C#N)C(c2ccc3[nH]nc(I)c3c2)C(C#N)=C(C)N1` [compound 93, 1,4-dihydro-4-(3-iodo-1H-indazol-5-yl)-2,6-dimethyl-3,5-pyridinedicarbonitrile] was tested. Which IC50 did it give?
**A.** < 100 nM

**Q.** For `CC1=C(C#N)C(c2ccc3c(c2)c(N)nn3C(=O)c2ccccc2)C(C#N)=C(C)N1` [compound 95, 4-(3-amino-1-benzoyl-1H-indazol-5-yl)-1,4-dihydro-2,6-dimethyl-3,5-pyridinedicarbonitrile], which IC50 is on record?
**A.** < 100 nM

**Q.** Which IC50 does the source give for `CC1=C(C#N)C(c2ccc3[nH]nc(NCc4ccccc4)c3c2)C(C#N)=C(C)N1` [compound 105, 1,4-dihydro-2,6-dimethyl-4-[3-[(phenylmethyl)amino]-1H-indazol-5-yl]-3,5-pyridinedicarbonitrile] here?
**A.** < 100 nM

**Q.** Which IC50 does the source give for `COC(c1cccnc1)n1nc(N)c2cc(C3C(C#N)=C(C)NC(C)=C3C#N)ccc21` (stereo not drawn) [compound 110, 4-[3-amino-1-(methoxy-3-pyridinylmethyl)-1H-indazol-5-yl]-1,4-dihydro-2,6-dimethyl-3,5-pyridinedicarbonitrile] here?
**A.** 100 to 500 nM

**Q.** How did the IC50 turn out when `CC1=C(C#N)C(c2ccc3[nH]nc(-c4ccc(N5CCNCC5)cc4)c3c2)C(C#N)=C(C)N1` [compound 111, 1,4-dihydro-2,6-dimethyl-4-[3-[4-(1-piperazinyl)phenyl]-1H-indazol-5-yl]-3,5-pyridinedicarbonitrile] was run?
**A.** < 100 nM

**Q.** For `CC1=C(C#N)C(c2ccc3[nH]nc(NCCO)c3c2)C(C#N)=C(C)N1` [compound 118, 1,4-dihydro-4-[3-[(2-hydroxyethyl)amino]-1H-indazol-5-yl]-2,6-dimethyl-3,5-pyridinedicarbonitrile], which IC50 is on record?
**A.** < 100 nM

**Q.** `CC1=C(C#N)C(c2ccc3c(c2)c(NCCO)nn3C(=O)OC(C)(C)C)C(C#N)=C(C)N1` [compound 119, 5-(3,5-dicyano-1,4-dihydro-2,6-dimethyl-4-pyridinyl)-3-[(2-hydroxyethyl)-amino]-1H-indazole-1-carboxylic acid, 1,1-dimethylethyl ester] was tested. Which IC50 did it give?
**A.** < 100 nM

**Q.** Which IC50 does the source give for `CC1=C(C#N)C(c2ccc3[nH]nc(NCc4cccnc4)c3c2)C(C#N)=C(C)N1` [compound 120, 1,4-dihydro-2,6-dimethyl-4-[3-[(3-pyridinylmethyl)amino]-1H-indazol-5-yl]-3,5-pyridinedicarbonitrile] here?
**A.** < 100 nM

**Q.** `COC(=O)Nc1ccc(-c2n[nH]c3ccc(C4C(C#N)=C(C)NC(C)=C4C#N)cc23)cc1` [compound 123, [4-[5-(3,5-dicyano-1,4-dihydro-2,6-dimethyl-4-pyridinyl)-1H-indazol-3-yl]-phenyl]-carbamic acid methyl ester] was tested. Which IC50 did it give?
**A.** 500 to 2500 nM

**Q.** For `CC1=C(C#N)C(c2ccc3[nH]nc(C(=O)NCCN4CCCC4)c3c2)C(C#N)=C(C)N1` [compound 124, 5-(3,5-dicyano-1,4-dihydro-2,6-dimethyl-4-pyridinyl)-N-[2-(1-pyrrolidinyl)ethyl]-1H-indazole-3-carboxamide], which IC50 is on record?
**A.** < 100 nM

**Q.** `CC1=C(C#N)C(c2ccc3[nH]nc(C(=O)NCCC4CCCN4C)c3c2)C(C#N)=C(C)N1` (stereo not drawn) [compound 125, 5-(3,5-dicyano-1,4-dihydro-2,6-dimethyl-4-pyridinyl)-N-[2-(1-methyl-2-pyrrolidinyl)ethyl]-1H-indazole-3-carboxamide] was tested. Which IC50 did it give?
**A.** < 100 nM

**Q.** For `CC1=C(C#N)C(c2ccc3[nH]nc(NCc4ccc([N+](=O)[O-])cc4)c3c2)C(C#N)=C(C)N1` [compound 127, 1,4-dihydro-2,6-dimethyl-4-[3-[[(4-nitrophenyl)methyl]amino]-1H-indazol-5-yl]-3,5-pyridinedicarbonitrile], which IC50 is on record?
**A.** 500 to 2500 nM

**Q.** Which IC50 does the source give for `CC1=C(C#N)C(c2ccc3[nH]nc(NCc4ccc(N)cc4)c3c2)C(C#N)=C(C)N1` [compound 128, 4-[3-[[(4-aminophenyl)methyl]amino]-1H-indazol-5-yl]-1,4-dihydro-2,6-dimethyl-3,5-pyridinedicarbonitrile] here?
**A.** < 100 nM

**Q.** `CC1=C(C#N)C(c2ccc3[nH]nc(NC(=O)c4ccccc4)c3c2)C(C#N)=C(C)N1` [compound 129, N-[5-(3,5-dicyano-1,4-dihydro-2,6-dimethyl-4-pyridinyl)-1H-indazol-3-yl]-benzamide] was tested. Which IC50 did it give?
**A.** < 100 nM

**Q.** Which IC50 does the source give for `CC1=C(C#N)C(c2ccc3[nH]nc(CN4CCN(c5ccncc5)CC4)c3c2)C(C#N)=C(C)N1` [compound 130, 1,4-dihydro-2,6-dimethyl-4-[3-[[4-(4-pyridinyl)-1-piperazinyl]methyl]-1H-indazol-5-yl]-3,5-pyridinedicarbonitrile] here?
**A.** 500 to 2500 nM

**Q.** `CC1=C(C#N)C(c2ccc3[nH]nc(NCC4CCN(C(=O)OC(C)(C)C)CC4)c3c2)C(C#N)=C(C)N1` [compound 131, 4-[[[5-(3,5-dicyano-1,4-dihydro-2,6-dimethyl-4-pyridinyl)-1H-indazol-3-yl]-amino]methyl]-1-piperidinecarboxylic acid 1,1-dimethylethyl ester] was tested. Which IC50 did it give?
**A.** 500 to 2500 nM

**Q.** How did the IC50 turn out when `CC1=C(C#N)C(c2ccc3[nH]nc(NCC4CCNCC4)c3c2)C(C#N)=C(C)N1` [compound 133, 1,4-dihydro-2,6-dimethyl-4-[3-[(4-piperidinylmethyl)amino]-1H-indazol-5-yl]-3,5-pyridinedicarbonitrile] was run?
**A.** < 100 nM
